Assay results as given in EP0755932A1, “(Thiophen-2-yl)piperidin or tetrahydropyridin-azabicyclocarboxamides” (AMERICAN HOME PRODUCTS CORPORATION, priority 1995, dated 1997).

Molecular target: T1, 5-HT1A serotonin receptor (Rattus norvegicus, UniProt P19327)
T1 construct: from tissue; host or cells: rat brain membranes (inferred from the cited Hall et al. procedure)
T1 sequence (P19327 1-422): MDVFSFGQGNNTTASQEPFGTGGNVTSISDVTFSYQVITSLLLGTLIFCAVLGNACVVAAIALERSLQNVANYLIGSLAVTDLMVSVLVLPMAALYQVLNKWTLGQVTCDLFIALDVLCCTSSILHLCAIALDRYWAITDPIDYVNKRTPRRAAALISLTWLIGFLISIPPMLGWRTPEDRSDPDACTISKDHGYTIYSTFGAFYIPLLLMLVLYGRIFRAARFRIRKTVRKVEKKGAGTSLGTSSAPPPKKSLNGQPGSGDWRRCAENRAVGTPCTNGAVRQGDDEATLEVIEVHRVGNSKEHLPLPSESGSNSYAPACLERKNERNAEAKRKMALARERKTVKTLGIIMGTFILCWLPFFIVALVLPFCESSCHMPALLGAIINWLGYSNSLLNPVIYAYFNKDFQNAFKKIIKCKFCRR
Assay: Displacement of [3H] 8-OHDPAT from the 5-HT1A serotonin receptor (procedure of Hall et al.)
Type: binding
Description: 8-OHDPAT (dipropylaminotetralin) from the 5-HT1A serotonin receptor following the procedure of Hall et al., J. Neurochem. 44, 1685 (1985).

SMILES	IC50 [nM]
COc1ccsc1C1(O)CCN(CC[C@@H](C(=O)N2C3CCCC2CC3)c2ccccc2)CC1 [Example 1, (R)-1-(8-Aza-bicyclo[3.2.1.]oct-8-yl)-4-[4-hvdroxy-4-(3-methoxythiophen-2-yl)-piperidin-1-yl]-2-phenylbutan-1-one]	942
COc1ccsc1C1=CCN(CC[C@@H](C(=O)N2C3CCCC2CC3)c2ccccc2)CC1 [Example 2, (R)-1-(8-Aza-bicyclo[3.2.1.]oct-8-yl)4-[4-(3-methoxythiophen-2-yl)-1,2,3,6-tetrahydropyridin-1-yl]-2-phenylbutan-1-one]	0.9
